Test results reported in paper PMC7269503 (Antimicrobial Agents and Chemotherapy, 2020).
Converted amounts (≈) assume the structure as drawn. “And” between values parts separate entries of the source, which are not always exact repeats. Identical values can stand only once. Like-named read-outs stand apart in the source and are kept apart here.

What was measured:
[1] = tested on: growing M. tuberculosis H37Rv; assay type: cell-based
[2] = tested on: M. tuberculosis ATCC 35828 (H37Rv PZA-R); assay: MIC by agar proportion method, standard strain; assay type: cell-based; conditions: Mycobacterium tuberculosis; […]; agar proportion method; read-out: MIC
[3] = lung
M. bovis ATCC BAA-935 = assay: microbe, parasite or virus in culture; assay type: cell-based; conditions: Mycobacterium tuberculosis variant bovis, ATCCBAA935
[4] = tested on: M. tuberculosis ATCC 35820 (H37Rv SM-R); assay: MIC by agar proportion method, standard strain; assay type: cell-based; conditions: Mycobacterium tuberculosis; […]; agar proportion method; read-out: MIC
[5] = tested on: 27 strains of M. tuberculosis; assay: Checkerboard agar dilution assay; assay type: cell-based; conditions: combined with DMD, MXF, LVX, BDQ, or LZD
Protocol: FIG 4 In vitro combination effects of OPC-167832 and other anti-TB agents (checkerboard assay). The in vitro combination effects of OPC-167832 and existing anti-TB agents against 27 strains of M. tuberculosis were examined by the checkerboard agar dilution method. CI, confidence interval.
The checkerboard procedure was performed using the MICs of tested agents against the bacterial strains established by an agar dilution method reported previously ([36]). The level of synergy was determined by calculating the FIC index based on the following formulas: ΣFIC = FIC of compound A + FIC of compound B; FIC of compound A = MIC of compound A in combination ÷ MIC of compound A alone; FIC of compound B = MIC of compound B in combination ÷ MIC of compound B alone. The average ΣFIC value was interpreted using the European Committee on Antimicrobial Susceptibility Testing criteria ([37]) with the following values: ≤0.5, synergy; >0.5 to 1, additive effect; >1 to 2, indifference; >2, antagonism). The averages of the ΣFIC values and the 95% confidence intervals for the tested bacterial strains were calculated.

[6] = tested on: standard strains of nonmycobacterial aerobic and anaerobic bacteria; assay: Activity against nonmycobacterial bacteria; assay type: cell-based; conditions: data not shown
M. caprae ATCC BAA-824 = assay: MIC by agar proportion method, standard strain; assay type: cell-based; conditions: ATCCBAA824; M. caprae ATCC BAA-824; agar proportion method; read-out: MIC
[7] = tested on: clinically isolated M. tuberculosis strains; assay type: cell-based; conditions: summary in abstract
M. africanum ATCC 25420 = assay: MIC by agar proportion method, standard strain; assay type: cell-based; conditions: ATCC25420; M. africanum ATCC 25420; agar proportion method; read-out: MIC
M. tuberculosis Kurono [8] = assay type: in vivo; conditions: oral 5 days per week, 4 weeks; OPC-167832 0.625, DMD 0.625, BDQ 5, LVX 300, LZD 100 mg/kg
[9] = tested on: intracellular M. tuberculosis Kurono; assay: microbe, parasite or virus in culture; assay type: cell-based
[10] = tested on: M. pinnipedii ATCC BAA-688; assay: MIC by agar proportion method, standard strain; assay type: cell-based; conditions: ATCCBAA688; M. pinnipedii ATCC BAA-688; agar proportion method; read-out: MIC
[11] = tested on: M. tuberculosis ATCC 35838 (H37Rv RIF-R); assay: MIC by agar proportion method, standard strain; assay type: cell-based; conditions: Mycobacterium tuberculosis; […]; agar proportion method; read-out: MIC
[12] = tested on: intracellular M. tuberculosis H37Rv; assay: microbe, parasite or virus in culture; assay type: cell-based
M. tuberculosis Kurono [13] = assay: Monotherapy in a mouse model of chronic TB; assay type: in vivo
[14] = tested on: M. tuberculosis ATCC 27294 (H37Rv); assay: MIC by agar proportion method, standard strain; assay type: cell-based; conditions: Mycobacterium tuberculosis; ATCC 27294 (H37Rv); agar proportion method; […]; read-out: MIC
[15] = tested on: M. tuberculosis ATCC 35837 (H37Rv EMB-R); assay: MIC by agar proportion method, standard strain; assay type: cell-based; conditions: Mycobacterium tuberculosis; […]; agar proportion method; read-out: MIC
[16] = tested on: M. tuberculosis ATCC 35822 (H37Rv INH-R); assay: MIC by agar proportion method, standard strain; assay type: cell-based; conditions: Mycobacterium tuberculosis; […]; agar proportion method; read-out: MIC
M. microti ATCC 11152 = assay: MIC by agar proportion method, standard strain; assay type: cell-based; conditions: ATCC11152; M. microti ATCC 11152; agar proportion method; read-out: MIC
[17] = tested on: M. tuberculosis ATCC 35812 (Kurono); assay: MIC by agar proportion method, standard strain; assay type: cell-based; conditions: Mycobacterium tuberculosis, ATCC35812; ATCC 35812 (Kurono); agar proportion method; read-out: MIC
in vivo = conditions: ICR, mouse
[18] = lungs of mice; cited from earlier work
M. tuberculosis = conditions: cited from earlier work

O=C1CCc2c(OC[C@]3(O)CCN(c4c(F)cc(Cl)cc4F)C[C@H]3O)ccc(F)c2N1 [OPC-167832]
concentration at which killing activity was achieved [1]: 0.0005 µg/mL | MIC [2]: 1 ng/mL (≈ 2.19 nM) | AUCt ([3]; 0.625 mg/kg oral, t: 8h): 505 ng·h/g | AUCt ([3]; 1.25 mg/kg oral, t: 8h): 909 ng·h/g | AUCt ([3]; 2.5 mg/kg oral, t: 8h): 2133 ng·h/g | AUCt ([3]; 5 mg/kg oral, t: 12h): 4742 ng·h/g | AUCt ([3]; 10 mg/kg oral, t: 12h): 7410 ng·h/g | MIC (M. bovis ATCC BAA-935): 2 ng/mL (≈ 4.38 nM) | MIC [4]: 1 ng/mL (≈ 2.19 nM) | interactive effect (mean FIC index) [5]: indifferent effect | activity against nonmycobacterial aerobic and anaerobic bacteria [6]: minimal or no activity | MIC (M. caprae ATCC BAA-824): 1 ng/mL (≈ 2.19 nM) | MICs for Mycobacterium tuberculosis (overall range) [7]: 0.00024 to 0.002 µg/mL | MIC (M. africanum ATCC 25420): 2 ng/mL (≈ 4.38 nM) | lung CFU compared to the vehicle group, single agent (M. tuberculosis Kurono [8]): significant decrease of lung CFU | bactericidal activity against intracellular bacilli ([9]; Kurono in THP-1-derived macrophage-like cells, 3 days): killed the intracellular bacilli | IC90 ([9]; Mycobacterium tuberculosis, THP-1, read-out: 90% inhibitory concentration (IC90)): 2.7 ng/mL (≈ 5.91 nM) | MIC [10]: 0.5 ng/mL (≈ 1.09 nM) | MIC [11]: 0.5 ng/mL (≈ 1.09 nM) | concentration at which intracellular bactericidal activity was saturated [12]: ≥ 0.004 µg/mL | bactericidal activity against intracellular bacilli ([12]; H37Rv in THP-1-derived macrophage-like cells, 3 days): killed the intracellular bacilli | IC90 ([12]; Mycobacterium tuberculosis, H37RV, THP-1, read-out: 90% inhibitory concentration (IC90)): 4.8 ng/mL (≈ 10.5 nM) | lung CFU compared to the vehicle group (M. tuberculosis Kurono [13]; 0.625, 1.25, 2.5, 5 and 10 mg/kg oral daily, 4 weeks, ICR female mice): significantly reduced lung CFU | minimum effective dose (M. tuberculosis Kurono [13]; mouse model of chronic TB, oral): 0.625 mg/kg | MIC [14]: 0.5 ng/mL (≈ 1.09 nM) | MIC [15]: 2 ng/mL (≈ 4.38 nM) | MIC [16]: 0.24 ng/mL (≈ 0.525 nM) | MIC (M. microti ATCC 11152): 1 ng/mL (≈ 2.19 nM) | MIC [17]: 0.5 ng/mL (≈ 1.09 nM) | Kp (in vivo): 1.67 to 1.96 | Kp (in vivo; female, po): ~2 | Tmax (in vivo; female, po): 0.5 to 1 h | AUC(0-t) (in vivo; female, po, 0.625 mg/kg): 283 ng·h/mL | Cmax (in vivo; female, po, 0.625 mg/kg): 162 ng/g | Tmax (in vivo; female, po, 0.625 mg/kg): 1 h | half-life (in vivo; female, po, 0.625 mg/kg, t1/2, lung, 0.625 mg/kg oral, calculated 2 - 8h): 1.4 h | half-life (in vivo; female, po, 0.625 mg/kg, t1/2, plasma, 0.625 mg/kg oral, calculated 2 - 8h): 1.6 h | AUC(0-t) (in vivo; female, po, 1.25 mg/kg): 543 ng·h/mL | Cmax (in vivo; female, po, 1.25 mg/kg): 303 ng/g and 200 ng/mL | Tmax (in vivo; female, po, 1.25 mg/kg): 1 h | half-life (in vivo; female, po, 1.25 mg/kg, t1/2, lung, 1.25 mg/kg oral, calculated 4 - 8h): 2 h | half-life (in vivo; female, po, 1.25 mg/kg, t1/2, plasma, 1.25 mg/kg oral, calculated 2 - 12h): 1.5 h | AUC(0-t) (in vivo; female, po, 2.5 mg/kg): 1140 ng·h/mL | Cmax (in vivo; female, po, 2.5 mg/kg): 314 ng/mL and 651 ng/g | Tmax (in vivo; female, po, 2.5 mg/kg): 0.5 h | half-life (in vivo; female, po, 2.5 mg/kg, t1/2, lung, 2.5 mg/kg oral, calculated 2 - 8h): 1.3 h | half-life (in vivo; female, po, 2.5 mg/kg, t1/2, plasma, 2.5 mg/kg oral, calculated 6 - 12h): 1.3 h | AUC(0-t) (in vivo; female, po, 5 mg/kg): 2650 ng·h/mL | Cmax (in vivo; female, po, 5 mg/kg): 758 ng/mL and 1360 ng/g | Tmax (in vivo; female, po, 5 mg/kg): 1 h | half-life (in vivo; female, po, 5 mg/kg, t1/2, lung, 5 mg/kg oral, calculated 2 - 12h): 2.1 h | half-life (in vivo; female, po, 5 mg/kg, t1/2, plasma, 5 mg/kg oral, calculated 2 - 12h): 2.1 h | AUC(0-t) (in vivo; female, po, 10 mg/kg): 3780 ng·h/mL | Cmax (in vivo; female, po, 10 mg/kg): 1090 ng/mL and 2220 ng/g | Tmax (in vivo; female, po, 10 mg/kg): 1 h | half-life (in vivo; female, po, 10 mg/kg, t1/2, lung, 10 mg/kg oral, calculated 6 - 12h): 2.1 h | half-life (in vivo; female, po, 10 mg/kg, t1/2, plasma, 10 mg/kg oral, calculated 2 - 12h): 1.6 h | half-life (in vivo; female, po, half-life (t1/2), plasma, oral doses 0.625 to 10 mg/kg): 1.3 to 2.1 h

O=c1nc(N2CCN(CC3CCCCC3)CC2)sc2c([N+](=O)[O-])cc(C(F)(F)F)cc12 [PBTZ169]
Kp (tissue to plasma partition coefficient), lungs [18]: 0.415

CCOC(=O)NC(=O)c1ccsc1NC(=O)c1nc2ccccc2s1 [TCA1]
MIC (M. tuberculosis): 190 ng/mL (≈ 506 nM)
